From US11286268B1, “EIF4E-inhibiting compounds and methods” (EFFECTOR THERAPEUTICS, INC., priority 2019, dated 2022)
Like-named read-outs stand apart in the source and are kept apart here.

Biological target: recombinant eIF4E (Homo sapiens (Human), UniProt P06730)
Assay: Fluorescence polarization competition assay for eIF4E binding potency
Summary of the method: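 Protein and fluorescent cap-analog probe (EDA-m7GDP-ATTO-550) were mixed first for 5 min, after which serially diluted compound was added to final 75 nM eIF4E, 20 nM probe, 1% DMSO. Reactions equilibrated 30 min at room temperature before polarization was measured.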

[1] = fluorescence polarization competition, 75 nM recombinant eIF4E, 20 nM EDA-m7GDP-ATTO-550, IC50 class, read-out: elF4E FP
[2] = inhibition of eIF4E/EDA-m7GDP-ATTO-550 binding by 50%, Table 4B calculated values, read-out: IC50

Sequence of recombinant eIF4E (P06730 whole entry): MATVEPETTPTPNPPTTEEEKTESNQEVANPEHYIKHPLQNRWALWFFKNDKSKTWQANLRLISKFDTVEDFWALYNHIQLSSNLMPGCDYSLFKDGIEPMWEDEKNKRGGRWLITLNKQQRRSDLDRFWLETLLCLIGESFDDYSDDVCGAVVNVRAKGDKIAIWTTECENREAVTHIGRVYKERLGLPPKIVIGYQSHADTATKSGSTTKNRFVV

SMILES | IC50 [1] | IC50 [2]
CCc1cc(-c2cc(Cl)ccc2OCCn2c(C)nc3cc(C(F)(F)F)c(-c4ccncc4)c(C#N)c3c2=O)c2scc(C(=O)O)c2n1 [compound 1012] | < 50 nM | 8.94 nM
CCc1cc(-c2cc(Cl)ccc2OCCn2c(C)nc3cc(C(F)(F)F)c(-c4cccnc4)c(C#N)c3c2=O)c2scc(C(=O)O)c2n1 [compound 1013] | < 50 nM | 18.5 nM
CCc1cc(-c2cc(Cl)ccc2OCCn2c(C)nc3cc(C(F)(F)F)c(-c4ccn(C)n4)c(C#N)c3c2=O)c2scc(C(=O)O)c2n1 [compound 1014] | < 50 nM | 25.6 nM
CCc1cc(-c2cc(Cl)ccc2OCCn2c(C)nc3c(C)nc(-c4ccccc4)c(C#N)c3c2=O)c2scc(C(=O)O)c2n1 [compound 1015] | < 50 nM | 19.7 nM
CCc1cc(-c2cc(Cl)ccc2OCCn2c(C)nc3cnc(-c4ccccc4)c(C#N)c3c2=O)c2scc(C(=O)O)c2n1 [compound 1016] | < 50 nM | 1.11 nM
CCc1cc(-c2cc(Cl)ccc2OCCn2c(C)nc3cc(C(F)(F)F)c(-c4cc(F)cnc4C)c(C#N)c3c2=O)c2scc(C(=O)O)c2n1 [compound 1017] | < 50 nM | 8.26 nM
Cc1cnc(-c2nc3c(=O)n(CCOc4ccc(Cl)cc4-c4cc(C)nc5c(C(=O)O)csc45)c(C)nc3cc2C(F)(F)F)cn1 [compound 1018] | < 50 nM | 6.71 nM
Cc1cc(-c2cc(Cl)ccc2OCCn2c(C)nc3cc(C(F)(F)F)c(-c4nccnc4C)nc3c2=O)c2scc(C(=O)O)c2n1 [compound 1019] | < 50 nM | 30.8 nM
Cc1cc(-c2cc(Cl)ccc2OCCn2c(C)nc3cc(C(F)(F)F)c(-c4cnc(C(F)F)cn4)nc3c2=O)c2scc(C(=O)O)c2n1 [compound 1020] | < 50 nM | 23.4 nM
Cc1cc(-c2cc(Cl)ccc2OCCn2c(C)nc3cc(C(F)(F)F)c(-c4cncc(C(F)(F)F)n4)nc3c2=O)c2scc(C(=O)O)c2n1 [compound 1021] | < 50 nM | 21.1 nM
Cc1cnc(C)c(-c2nc3c(=O)n(CCOc4ccc(Cl)cc4-c4cc(C)nc5c(C(=O)O)csc45)c(C)nc3cc2C(F)(F)F)n1 [compound 1022] | < 50 nM | 42.4 nM
Cc1cnc(-c2nc3c(=O)n(CCOc4ccc(Cl)cc4-c4cc(C)nc5c(C(=O)O)csc45)c(C)nc3cc2C(F)(F)F)c(C)n1 [compound 1023] | < 50 nM | 49.8 nM
Cc1cnc(-c2nc3c(=O)n(CCOc4ccc(Cl)cc4-c4cc(C)nc5c(C(=O)O)csc45)c(C)nc3cc2C(F)(F)F)c(Cl)n1 [compound 1024] | < 50 nM | 24.2 nM
Cc1cc(-c2cc(Cl)ccc2OCCn2c(C)nc3cc(C(F)(F)F)c(-c4cncc(C(F)(F)F)n4)c(C#N)c3c2=O)c2scc(C(=O)O)c2n1 [compound 1026] | < 50 nM | 15.5 nM
Cc1cc(-c2cc(Cl)ccc2OCCn2c(C)nc3cc(C(F)(F)F)c(OCc4ccccn4)c(C#N)c3c2=O)c2scc(C(=O)O)c2n1 [compound 1033] | < 50 nM | 20 nM
Cc1cc(-c2cc(Cl)ccc2OCCn2c(C)nc3cc(C(F)(F)F)c(Oc4cccnc4)c(C#N)c3c2=O)c2scc(C(=O)O)c2n1 [compound 1035] | < 50 nM | 
Cc1cc(-c2cc(Cl)ccc2OCCn2c(C)nc3cnc(Oc4ccccc4)c(C#N)c3c2=O)c2scc(C(=O)O)c2n1 [compound 1038] | < 50 nM | 38.9 nM
Cc1cc(-c2cc(Cl)ccc2OCCn2c(C)nc3cnc(OCc4ccccn4)c(C#N)c3c2=O)c2scc(C(=O)O)c2n1 [compound 1039] | < 50 nM | 21.7 nM

Other lines, results leading:

IC50 [1] | IC50 [2] | SMILES
< 50 nM | 5.29 nM | COC1CN(c2ncc3nc(C)n(CCOc4ccc(Cl)cc4-c4cc(C)nc5c(C(=O)O)csc45)c(=O)c3c2C#N)C1 [compound 1010]
< 50 nM | 7.15 nM | Cc1cc(-c2cc(Cl)ccc2OCCn2c(C)nc3cnc(N4CC(O)C4)c(C#N)c3c2=O)c2scc(C(=O)O)c2n1 [compound 1011]
< 50 nM | 30 nM | Cc1cc(-c2cc(Cl)ccc2OCCn2c(C)nc3cc(C(F)(F)F)c(-c4cnc(C(F)F)cn4)c(C#N)c3c2=O)c2scc(C(=O)O)c2n1 [compound 1025]
< 50 nM | 31.5 nM | Cc1cc(-c2cc(Cl)ccc2OCCn2c(C)nc3cc(C(F)(F)F)c(-c4nn(C)cc4C)c(C#N)c3c2=O)c2scc(C(=O)O)c2n1 [compound 1027]
< 50 nM | 6.14 nM | Cc1cc(-c2cc(Cl)ccc2OCCn2c(C)nc3cc(C(F)(F)F)c(-c4cc(C)nn4C)c(C#N)c3c2=O)c2scc(C(=O)O)c2n1 [compound 1028]
< 50 nM | 7.66 nM | Cc1cc(-c2cc(Cl)ccc2OCCn2c(C)nc3cc(C(F)(F)F)c(-c4cc(C)n(C)n4)c(C#N)c3c2=O)c2scc(C(=O)O)c2n1 [compound 1029]
< 50 nM | 11.6 nM | Cc1cc(-c2cc(Cl)ccc2OCCn2c(C)nc3cc(C(F)(F)F)c(-c4cn(C)nc4C)c(C#N)c3c2=O)c2scc(C(=O)O)c2n1 [compound 1031]
< 50 nM | 6.2 nM | Cc1cc(-c2cc(Cl)ccc2OCCn2c(C)nc3cc(C(F)(F)F)c(-c4cnn(C)c4C)c(C#N)c3c2=O)c2scc(C(=O)O)c2n1 [compound 1032]
< 50 nM | 37.9 nM | Cc1cc(-c2cc(Cl)ccc2OCCn2c(C)nc3cc(C(F)(F)F)c(OC4CC4)c(C#N)c3c2=O)c2scc(C(=O)O)c2n1 [compound 1034]
< 50 nM | 3.51 nM | COc1c(C(F)(F)F)cc2nc(C)n(CCOc3ccc(Cl)cc3-c3cc(C)nc4c(C(=O)O)csc34)c(=O)c2c1C#N [compound 1036]
< 50 nM | 30 nM | Cc1cc(-c2cc(Cl)ccc2OCCn2c(C)nc3cc(N(C)C)c(-c4ccccc4)c(C#N)c3c2=O)c2scc(C(=O)O)c2n1 [compound 1040]
< 50 nM | 6.21 nM | Cc1cc(-c2cc(Cl)ccc2OCCn2c(C)nc3cnc(N4CC(OC(F)F)C4)c(C#N)c3c2=O)c2scc(C(=O)O)c2n1 [compound 1041]
< 50 nM | 26.5 nM | Cc1cc(-c2cc(Cl)ccc2OCCn2c(C)nc3cnc(N4CC(OC(F)(F)F)C4)c(C#N)c3c2=O)c2scc(C(=O)O)c2n1 [compound 1042]
< 50 nM | 3.98 nM | Cc1cc(-c2cc(Cl)ccc2OCCn2c(C)nc3cnc(N4CC(OCC(F)F)C4)c(C#N)c3c2=O)c2scc(C(=O)O)c2n1 [compound 1043]
< 50 nM | 5.31 nM | Cc1cc(-c2cc(Cl)ccc2OCCn2c(C)nc3cnc(N4CC(OCC(F)(F)F)C4)c(C#N)c3c2=O)c2scc(C(=O)O)c2n1 [compound 1044]
< 50 nM | 38.2 nM | Cc1cc(-c2cc(Cl)ccc2OCCn2c(C)nc3cnc(N4CC(OC(C)(C)C)C4)c(C#N)c3c2=O)c2scc(C(=O)O)c2n1 [compound 1045]
< 50 nM | 21.2 nM | Cc1cc(-c2cc(Cl)ccc2OCCn2c(C)nc3cc(Cl)c(C4CCC4)c(C#N)c3c2=O)c2scc(C(=O)O)c2n1 [compound 1047]
< 50 nM | 13.7 nM | Cc1cc(-c2cc(Cl)ccc2OCCn2c(C)nc3cc(C(F)F)c(C4CC4)c(C#N)c3c2=O)c2scc(C(=O)O)c2n1 [compound 1048]
< 50 nM | 9.35 nM | Cc1cc(-c2cc(Cl)ccc2OCCn2c(C)nc3cc(C(F)(F)F)c(C4CC4)c(C#N)c3c2=O)c2scc(C(=O)O)c2n1 [compound 1049]
